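Cells were grown in 96-well plates and exposed to each compound for 48 hours at five concentrations; endpoints were interpolated linearly between bracketing concentrations, or set to the highest concentration if not reached. The concentration for 50% growth inhibition is given as GI50. At the TGI there is no net growth.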
Assays:
Experiment in all cases: DTP human tumour cell line panel, 48 h
HL-60(TB) leukemia = tested on: HL-60(TB) leukemia
T-47D breast = tested on: T-47D breast
SF-539 CNS = tested on: SF-539 CNS
CCRF-CEM leukemia = tested on: CCRF-CEM leukemia
EKVX NSCLC = tested on: EKVX NSCLC
NCI/ADR-RES ovarian = tested on: NCI/ADR-RES ovarian
RXF 393 renal = tested on: RXF 393 renal
NCI-H23 lung = tested on: NCI-H23 lung
ACHN renal = tested on: ACHN renal
RPMI-8226 leukemia = tested on: RPMI-8226 leukemia
IGROV1 ovarian = tested on: IGROV1 ovarian
HOP-92 NSCLC = tested on: HOP-92 NSCLC
OVCAR-4 ovarian = tested on: OVCAR-4 ovarian
MDA-MB-231 breast = tested on: MDA-MB-231 breast
COLO 205 colon = tested on: COLO 205 colon
HCC-2998 colon = tested on: HCC-2998 colon
UACC-62 melanoma = tested on: UACC-62 melanoma
SK-MEL-28 melanoma = tested on: SK-MEL-28 melanoma
NCI-H460 lung = tested on: NCI-H460 lung
SW-620 colon = tested on: SW-620 colon
MDA-MB-468 breast = tested on: MDA-MB-468 breast
SN12C renal = tested on: SN12C renal
HS 578T breast = tested on: HS 578T breast
UO-31 renal = tested on: UO-31 renal
MCF7 breast = tested on: MCF7 breast
BT-549 breast = tested on: BT-549 breast
A549 NSCLC = tested on: A549 NSCLC
DU-145 prostate = tested on: DU-145 prostate
UACC-257 melanoma = tested on: UACC-257 melanoma
SK-MEL-5 melanoma = tested on: SK-MEL-5 melanoma
PC-3 prostate = tested on: PC-3 prostate
OVCAR-8 ovarian = tested on: OVCAR-8 ovarian
OVCAR-3 ovarian = tested on: OVCAR-3 ovarian
SNB-75 CNS = tested on: SNB-75 CNS
MALME-3M melanoma = tested on: MALME-3M melanoma
HCT-116 colon = tested on: HCT-116 colon
A498 renal = tested on: A498 renal
LOX IMVI melanoma = tested on: LOX IMVI melanoma
M14 melanoma = tested on: M14 melanoma
U251 CNS = tested on: U251 CNS
CAKI-1 renal = tested on: CAKI-1 renal
NCI-H226 lung = tested on: NCI-H226 lung
786-0 renal = tested on: 786-0 renal
HOP-62 NSCLC = tested on: HOP-62 NSCLC
TK-10 renal = tested on: TK-10 renal
HCT-15 colon = tested on: HCT-15 colon
MDA-MB-435 = tested on: MDA-MB-435
OVCAR-5 ovarian = tested on: OVCAR-5 ovarian
SR leukemia = tested on: SR leukemia
SK-OV-3 ovarian = tested on: SK-OV-3 ovarian
SF-268 CNS = tested on: SF-268 CNS
K-562 leukemia = tested on: K-562 leukemia
HT29 colon = tested on: HT29 colon
KM12 colon = tested on: KM12 colon
SK-MEL-2 melanoma = tested on: SK-MEL-2 melanoma
NCI-H522 lung = tested on: NCI-H522 lung
MOLT-4 leukemia = tested on: MOLT-4 leukemia
SNB-19 CNS = tested on: SNB-19 CNS
SF-295 CNS = tested on: SF-295 CNS

Compound: O=C(Nc1ccc(-c2ccc3c(c2)NC(=O)/C3=C\c2ccc[nH]2)cc1)Nc1ccc(Cl)c(C(F)(F)F)c1
- GI50 (HL-60(TB) leukemia): 3.27 µM
- TGI (HL-60(TB) leukemia): 15 µM
- GI50 (T-47D breast): 0.29 µM
- TGI (T-47D breast): 4.12 µM
- GI50 (SF-539 CNS): 1.82 µM
- TGI (SF-539 CNS): 6.59 µM
- GI50 (CCRF-CEM leukemia): 2.57 µM
- TGI (CCRF-CEM leukemia): 9.6 µM
- GI50 (EKVX NSCLC): 0.243 µM
- TGI (EKVX NSCLC): 6.38 µM
- GI50 (NCI/ADR-RES ovarian): 2.93 µM
- TGI (NCI/ADR-RES ovarian): 11.1 µM
- GI50 (RXF 393 renal): 2.25 µM
- TGI (RXF 393 renal): 5.34 µM
- GI50 (NCI-H23 lung): 1.12 µM
- TGI (NCI-H23 lung): 3.12 µM
- GI50 (ACHN renal): 3 µM
- TGI (ACHN renal): 9.6 µM
- GI50 (RPMI-8226 leukemia): 1.56 µM
- TGI (RPMI-8226 leukemia): 4.98 µM
- GI50 (IGROV1 ovarian): 4.05 µM
- TGI (IGROV1 ovarian): 17.4 µM
- GI50 (HOP-92 NSCLC): 1.23 µM
- TGI (HOP-92 NSCLC): 4.69 µM
- GI50 (OVCAR-4 ovarian): 1.24 µM
- TGI (OVCAR-4 ovarian): 8.4 µM
- GI50 (MDA-MB-231 breast): 2.23 µM
- TGI (MDA-MB-231 breast): 10.1 µM
- GI50 (COLO 205 colon): 2.82 µM
- TGI (COLO 205 colon): 10.9 µM
- GI50 (HCC-2998 colon): 2.18 µM
- TGI (HCC-2998 colon): 6.15 µM
- GI50 (UACC-62 melanoma): 2.62 µM
- TGI (UACC-62 melanoma): 12.9 µM
- GI50 (SK-MEL-28 melanoma): 3.04 µM
- TGI (SK-MEL-28 melanoma): 10.2 µM
- GI50 (NCI-H460 lung): 0.489 µM
- TGI (NCI-H460 lung): 1.82 µM
- GI50 (SW-620 colon): 1.88 µM
- TGI (SW-620 colon): 3.89 µM
- GI50 (MDA-MB-468 breast): 0.033 µM
- TGI (MDA-MB-468 breast): 0.322 µM
- GI50 (SN12C renal): 1.71 µM
- TGI (SN12C renal): 3.53 µM
- GI50 (HS 578T breast): 2.64 µM
- TGI (HS 578T breast): 16.1 µM
- GI50 (UO-31 renal): 1.75 µM
- TGI (UO-31 renal): 14.3 µM
- GI50 (MCF7 breast): 0.18 µM
- TGI (MCF7 breast): 1.63 µM
- GI50 (BT-549 breast): 2.05 µM
- TGI (BT-549 breast): 6.15 µM
- GI50 (A549 NSCLC): 1.56 µM
- TGI (A549 NSCLC): 3.56 µM
- GI50 (DU-145 prostate): 2.13 µM
- TGI (DU-145 prostate): 4.99 µM
- GI50 (UACC-257 melanoma): 2.77 µM
- TGI (UACC-257 melanoma): 9.01 µM
- GI50 (SK-MEL-5 melanoma): 5.56 µM
- TGI (SK-MEL-5 melanoma): 18.8 µM
- GI50 (PC-3 prostate): 1.83 µM
- TGI (PC-3 prostate): 6.69 µM
- GI50 (OVCAR-8 ovarian): 2.17 µM
- TGI (OVCAR-8 ovarian): 5.38 µM
- GI50 (OVCAR-3 ovarian): 1.57 µM
- TGI (OVCAR-3 ovarian): 3.62 µM
- GI50 (SNB-75 CNS): 2.64 µM
- TGI (SNB-75 CNS): 17.4 µM
- GI50 (MALME-3M melanoma): 3.78 µM
- TGI (MALME-3M melanoma): 16.4 µM
- GI50 (HCT-116 colon): 1.78 µM
- TGI (HCT-116 colon): 3.46 µM
- GI50 (A498 renal): 2.35 µM
- TGI (A498 renal): 9.4 µM
- GI50 (LOX IMVI melanoma): 1.73 µM
- TGI (LOX IMVI melanoma): 3.33 µM
- GI50 (M14 melanoma): 3.47 µM
- TGI (M14 melanoma): 14.4 µM
- GI50 (U251 CNS): 1.64 µM
- TGI (U251 CNS): 3.42 µM
- GI50 (CAKI-1 renal): 2.92 µM
- TGI (CAKI-1 renal): 12.9 µM
- GI50 (NCI-H226 lung): 1.33 µM
- TGI (NCI-H226 lung): 11.4 µM
- GI50 (786-0 renal): 3.09 µM
- TGI (786-0 renal): 10.2 µM
- GI50 (HOP-62 NSCLC): 2.09 µM
- TGI (HOP-62 NSCLC): 8.75 µM
- GI50 (TK-10 renal): 1.43 µM
- TGI (TK-10 renal): 7.55 µM
- GI50 (HCT-15 colon): 1.6 µM
- TGI (HCT-15 colon): 4.04 µM
- GI50 (MDA-MB-435): 2 µM
- TGI (MDA-MB-435): 4.67 µM
- GI50 (OVCAR-5 ovarian): 2.18 µM
- TGI (OVCAR-5 ovarian): 10.5 µM
- GI50 (SR leukemia): 2.13 µM
- TGI (SR leukemia): 7.01 µM
- GI50 (SK-OV-3 ovarian): 2.56 µM
- TGI (SK-OV-3 ovarian): 13.9 µM
- GI50 (SF-268 CNS): 1.94 µM
- TGI (SF-268 CNS): 5.09 µM
- GI50 (K-562 leukemia): 2.54 µM
- TGI (K-562 leukemia): 11.3 µM
- GI50 (HT29 colon): 2.56 µM
- TGI (HT29 colon): 7.71 µM
- GI50 (KM12 colon): 2.24 µM
- TGI (KM12 colon): 10.6 µM
- GI50 (SK-MEL-2 melanoma): 3.48 µM
- TGI (SK-MEL-2 melanoma): 14.2 µM
- GI50 (NCI-H522 lung): 1.54 µM
- TGI (NCI-H522 lung): 3.67 µM
- GI50 (MOLT-4 leukemia): 2.48 µM
- TGI (MOLT-4 leukemia): 11.4 µM
- GI50 (SNB-19 CNS): 3.6 µM
- TGI (SNB-19 CNS): 15.5 µM
- GI50 (SF-295 CNS): 2.84 µM
- TGI (SF-295 CNS): 10.2 µM
